Test [1] has as its target T1, BaF3 cells expressing Tel-FGFR-4 and luciferase (Homo sapiens, UniProt P22455).
T1 construct: Luciferase is co-expressed as a viability reporter and is not part of the key; P41212 (Transcription factor ETV6)
As to the kind of experiment: BaF3 cellular growth inhibition assay, Tel-FGFR-4 and luciferase (Bright-Glo). As to conditions: BaF3 Tel-FGFR-4 cells, 2 days incubation, 50% growth inhibition vs DMSO. The format is cell-based. How it is done:
(§1) Compounds' inhibitory activities against FGFR-4 or FGFR-1 were measured in BaF3 cells expressing Tel-FGFR-4 and luciferase or Tel-FGFR-1 and luciferase, whose growth was dependent on FGFR-4 or FGFR-1 kinase but independent of IL-3. The cells were plated in 384-well plates in RPMI1640 with 10% FBS. Compounds were added as 11-point dilutions. Cell viability was determined by Bright-Glo luciferase assay (Promega) after cells were incubated with compounds for 2 days. The IC50 value was determined as the concentration for 50% growth inhibition compared to DMSO treated cells (A: IC50<0.1 μM; B: IC50 between 0.1 μM and 1 μM; C: IC50 between 1 μM and 10 μM).

Test [2] addresses T2, BaF3 cells expressing Tel-FGFR-1 and luciferase (Homo sapiens, UniProt P11362).
T2 construct: Luciferase is co-expressed as a viability reporter and is not part of the key; P41212 (Transcription factor ETV6)
As to the kind of experiment: BaF3 cellular growth inhibition assay, Tel-FGFR-1 and luciferase (Bright-Glo). As to conditions: BaF3 Tel-FGFR-1 cells, 2 days incubation, 50% growth inhibition vs DMSO. The format is cell-based. As to the method: as §1

Some results are limits rather than exact numbers.

T2 sequence (P11362 478-767 limits assumed): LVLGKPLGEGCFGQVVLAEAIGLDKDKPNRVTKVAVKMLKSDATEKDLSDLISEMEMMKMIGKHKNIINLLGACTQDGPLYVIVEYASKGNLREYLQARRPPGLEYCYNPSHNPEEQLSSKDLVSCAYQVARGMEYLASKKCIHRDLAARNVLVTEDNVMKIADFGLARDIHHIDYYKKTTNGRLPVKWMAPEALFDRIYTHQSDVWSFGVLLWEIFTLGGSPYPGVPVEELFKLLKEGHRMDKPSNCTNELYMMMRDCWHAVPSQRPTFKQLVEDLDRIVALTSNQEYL
T1 sequence (P22455 467-755 limits assumed): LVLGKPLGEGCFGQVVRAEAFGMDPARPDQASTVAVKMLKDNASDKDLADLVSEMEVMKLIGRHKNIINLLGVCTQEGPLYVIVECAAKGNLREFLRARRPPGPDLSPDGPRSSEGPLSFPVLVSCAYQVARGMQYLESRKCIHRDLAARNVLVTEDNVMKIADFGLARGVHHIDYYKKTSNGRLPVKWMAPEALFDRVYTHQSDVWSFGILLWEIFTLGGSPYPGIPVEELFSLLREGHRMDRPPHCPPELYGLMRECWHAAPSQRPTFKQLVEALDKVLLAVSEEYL

By IC50 is commonly meant the point on the concentration scale where inhibition reaches its midpoint. Lower therefore signals inhibition by little substance. On to `C=CC(=O)Nc1cc(N2CCN(CC)CC2)ccc1Nc1cc2cc(C(O)c3c(F)c(OC)cc(OC)c3F)oc2cn1` (racemic) [Example 5, (±)-N-(2-((2-((2,6-difluoro-3,5-dimethoxyphenyl)(hydroxy)methyl)furo[2,3-c]pyridin-5-yl)amino)-5-(4-ethylpiperazin-1-yl)phenyl)acrylamide], for which the 50% inhibitory concentration (IC50) in test [1] was less than 100 nM; in test [2] (numeric bounds), greater than 10000 nM.

On to `C=CC(=O)Nc1cc(N2CCN(CC)CC2)ccc1Nc1cc2cc(C(C)(O)c3c(F)c(OC)cc(OC)c3F)oc2cn1` (racemic) [Example 7, (±)-N-(2-((2-(1-(2,6-difluoro-3,5-dimethoxyphenyl)-1-hydroxyethyl)furo[2,3-c]pyridin-5-yl)amino)-5-(4-ethylpiperazin-1-yl)phenyl)acrylamide], for which the IC50 was 100 to 1000 nM in test [1] and greater than 10000 nM in test [2] (numeric bounds).

For `C=CC(=O)Nc1cn(C)nc1Nc1cc2cc(C(O)c3c(F)c(OC)cc(OC)c3F)oc2cn1` (racemic) [Example 10, (±)-N-(3-((2-((2,6-difluoro-3,5-dimethoxyphenyl)(hydroxy)methyl)furo[2,3-c]pyridin-5-yl)amino)-1-methyl-1H-pyrazol-4-yl)acrylamide], the values for the IC50 in test [1] and in test [2] (numeric bounds) were 100 to 1000 nM and greater than 3300 nM, respectively.

Regarding `C=CC(=O)N[C@H]1CCOC[C@H]1Nc1cc2cc(C(O)c3c(F)c(OC)cc(OC)c3F)oc2cn1` (mixture of isomers) [Example 14, (±)N-((3S,4S)-3-((2-((2,6-difluoro-3,5-dimethoxyphenyl)(hydroxy)methyl)furo[2,3-c]pyridin-5-yl)amino)tetrahydro-2H-pyran-4-yl)acrylamide], the IC50 in test [1] was 100 to 1000 nM; in test [2] (numeric bounds) it was greater than 10000 nM.

Take `C=CC(=O)Nc1cccc(C)c1Nc1cc2cc(C(O)c3c(F)c(OC)cc(OC)c3F)sc2cn1` (racemic) [Example 28, (±)-N-(2-((2-((2,6-difluoro-3,5-dimethoxyphenyl)(hydroxy)methyl)thieno[2,3-c]pyridin-5-yl)amino)-3-methylphenyl)acrylamide]: the IC50 in test [1] was less than 100 nM; in test [2] (numeric bounds) it was greater than 10000 nM.

In the case of `C=CC(=O)Nc1cccc(Cl)c1Nc1cc2cc(C(O)c3c(F)c(OC)cc(OC)c3F)oc2cn1` (racemic) [Example 29, (±)-N-(3-chloro-2-((2-((2,6-difluoro-3,5-dimethoxyphenyl)(hydroxy)methyl)furo[2,3-c]pyridin-5-yl)amino)phenyl)acrylamide], the IC50 was less than 100 nM in test [1] and greater than 10000 nM in test [2] (numeric bounds).

As for `C=CC(=O)Nc1cccc(C(F)(F)F)c1Nc1cc2cc(C(O)c3c(F)c(OC)cc(OC)c3F)oc2cn1` (racemic) [Example 30, (±)-N-(2-((2-((2,6-difluoro-3,5-dimethoxyphenyl)(hydroxy)methyl)furo[2,3-c]pyridin-5-yl)amino)-3-(trifluoromethyl)phenyl)acrylamide], the IC50 is 100 to 1000 nM in test [1] and greater than 10000 nM in test [2] (numeric bounds).

On to `C=CC(=O)Nc1cc(N2CCN(CC)CC2)ccc1Nc1ncc2oc(C(O)c3c(F)c(OC)cc(OC)c3F)cc2n1` (racemic) [Example 31, (±)-N-(2-((6-((2,6-difluoro-3 ,5-dimethoxyphenyl)(hydroxy)methyl)furo[3,2-d]pyrimidin-2-yl)amino)-5-(4-ethylpiperazin-1-yl)phenyl)acrylamide], for which the IC50 in test [1] is less than 100 nM; in test [2] (class symbols) it was 1000 to 10000 nM.

As for `C=CC(=O)Nc1cc(N2CCN(CC)CC2)ccc1Nc1cc2cc(C(O)c3c(F)c(OC)cc(OC)c3F)oc2cn1` (single isomer, unassigned) [Example 13A, N-(2-((2-((2,6-difluoro-3,5-dimethoxyphenyl)(hydroxy)methyl)furo[2,3-c]pyridin-5-yl)amino)-5-(4-ethylpiperazin-1-yl)phenyl)acrylamide], the figures for the IC50 in test [1] and in test [2] (numeric bounds) were less than 100 nM and greater than 10000 nM, respectively.

As to `C=CC(=O)Nc1cc(N2CCN(CC)CC2)ccc1Nc1cc2cc(C(O)c3c(F)c(OC)cc(OC)c3F)oc2cn1` (single isomer, unassigned) [Example 13B, N-(2-((2-((2,6-difluoro-3,5-dimethoxyphenyl)(hydroxy)methyl)furo[2,3-c]pyridin-5-yl)amino)-5-(4-ethylpiperazin-1-yl)phenyl)acrylamide], the IC50 in test [2] (numeric bounds) was greater than 10000 nM.

For `C=CC(=O)Nc1cc(N2CCN(CC)CC2)ccc1Nc1ccc2c(ccn2Cc2c(F)c(OC)cc(OC)c2F)n1` [Example 1, N-(2-((1-(2,6-difluoro-3,5-dimethoxybenzyl)-1H-pyrrolo[3,2-b]pyridin-5-yl)amino)-5-(4-ethylpiperazin-1-yl)phenyl)acrylamide], the IC50 in test [1] is 100 to 1000 nM; in test [2] (numeric bounds) it was greater than 3300 nM.

For the compound `C=CC(=O)Nc1cc(N2CCN(CC)CC2)ccc1Nc1cc2cc(C(=O)c3c(F)c(OC)cc(OC)c3F)oc2cn1` [Example 3, N-(2-((2-(2,6-difluoro-3,5-dimethoxybenzoyl)furo[2,3-c]pyridin-5-yl)amino)-5-(4-ethylpiperazin-1-yl)phenyl)acrylamide], the results for the IC50 in test [1] and in test [2] (numeric bounds) were less than 100 nM and greater than 10000 nM, respectively.

Take `C=CC(=O)Nc1cc(N2CCN(CC)CC2)ccc1Nc1cc2cc(C(F)(F)c3c(F)c(OC)cc(OC)c3F)oc2cn1` [Example 8, N-(2-((2-((2,6-difluoro-3,5-dimethoxyphenyl)difluoromethyl)furo[2,3-c]pyridin-5-yl)amino)-5-(4-ethylpiperazin-1-yl)phenyl)acrylamide]: the IC50 in test [1] is 100 to 1000 nM; in test [2] (numeric bounds), greater than 10000 nM.

Consider `C=CC(=O)Nc1cc(N2CCN(CC)CC2)ccc1Nc1cc2cc(C(=O)c3cc(OC)cc(OC)c3)oc2cn1` [Example 11, N-(2-((2-(3,5-dimethoxybenzoyl)furo[2,3-c]pyridin-5-yl)amino)-5-(4-ethylpiperazin-1-yl)phenyl)acrylamide], for which the figures for the IC50 in test [1] and in test [2] (class symbols) were 100 to 1000 nM and 1000 to 10000 nM, respectively.

Take `C=CC(=O)N[C@H]1CCOC[C@H]1Nc1cc2cc(C(=O)c3c(F)c(OC)cc(OC)c3F)oc2cn1` [Example 12, N-((3S,4S)-3-((2-(2,6-difluoro-3,5-dimethoxybenzoyl)furo[2,3-c]pyridin-5-yl)amino)tetrahydro-2H-pyran-4-yl)acrylamide]: the IC50 in test [1] was 100 to 1000 nM; in test [2] (numeric bounds), greater than 10000 nM.

In the case of `C=CC(=O)Nc1cc(N2CCN(CC)CC2)ccc1Nc1cc2cc(C(=O)c3c(F)c(OC)cc(OC)c3F)sc2cn1` [Example 16, N-(2-((2-(2,6-difluoro-3,5-dimethoxybenzoyl)thieno[2,3-c]pyridin-5-yl)amino)-5-(4-ethylpiperazin-1-yl)phenyl)acrylamide], the figures for the half-inhibitory concentration (IC50) in test [1] and in test [2] (class symbols) were less than 100 nM and 1000 to 10000 nM, respectively.

As to `C=CC(=O)Nc1cccc(C)c1Nc1cc2cc(C(=O)c3c(F)c(OC)cc(OC)c3F)oc2cn1` [Example 17, N-(2-((2-(2,6-difluoro-3,5-dimethoxybenzoyl)furo[2,3-c]pyridin-5-yl)amino)-3-methylphenyl)acrylamide], the IC50 was less than 100 nM in test [1] and greater than 10000 nM in test [2] (numeric bounds).

In the case of `C=CC(=O)Nc1cc(N2CCN(CC)CC2)ccc1Nc1cc2cc(C(=O)c3c(F)c(OC)cc(OC)c3F)n(C)c2cn1` [Example 19, N-(2-((2-(2,6-difluoro-3,5-dimethoxybenzoyl)-1-methyl-1H-pyrrolo[2,3-c]pyridin-5-yl)amino)-5-(4-ethylpiperazin-1-yl)phenyl)acrylamide], the values for the IC50 in test [1] and in test [2] (class symbols) were 100 to 1000 nM and 1000 to 10000 nM, respectively.

`C=CC(=O)Nc1cc(N2CCN(CC)CC2)ccc1Nc1ncc2oc(C(=O)c3c(F)c(OC)cc(OC)c3F)cc2n1` [Example 20, N-(2-((6-(2,6-difluoro-3,5-dimethoxybenzoyl)furo[3,2-d]pyrimidin-2-yl)amino)-5-(4-ethylpiperazin-1-yl)phenyl)acrylamide]: the IC50 was less than 100 nM in test [1] and 1000 to 10000 nM in test [2] (class symbols).

As to `C=CC(=O)Nc1cc(N2CCN(CC)CC2)ccc1Nc1cc2cc(C(=O)c3c(F)c(OC)cc(OC)c3F)[nH]c2cn1` [Example 21, N-(2-((2-(2,6-difluoro-3,5-dimethoxybenzoyl)-1H-pyrrolo[2,3-c]pyridin-5-yl)amino)-5-(4-ethylpiperazin-1-yl)phenyl)acrylamide], the results for the IC50 in test [1] and in test [2] (numeric bounds) were 100 to 1000 nM and greater than 3300 nM, respectively.

In the case of `C=CC(=O)Nc1cc(N2CCN(CC)CC2)ccc1Nc1cc2c(C(=O)c3c(F)c(OC)cc(OC)c3F)c[nH]c2cn1` [Example 22, N-(2-((3-(2,6-difluoro-3,5-dimethoxybenzoyl)-1H-pyrrolo[2,3-c]pyridin-5-yl)amino)-5-(4-ethylpiperazin-1-yl)phenyl)acrylamide], the half-inhibitory concentration (IC50) lay within 100 to 1000 nM in test [1] and 1000 to 10000 nM in test [2] (class symbols).

As to `C=CC(=O)Nc1cccc(C)c1Nc1ncc2oc(C(=O)c3c(F)c(OC)cc(OC)c3F)cc2n1` [Example 23, N-(2-((6-(2,6-difluoro-3,5-dimethoxybenzoyl)furo[3,2-d]pyrimidin-2-yl)amino)-3-methylphenyl)acrylamide], the results for the IC50 in test [1] and in test [2] (numeric bounds) were less than 100 nM and greater than 6650 nM, respectively.

Consider `C=CC(=O)Nc1cccc(C)c1Nc1cc2cc(C(=O)c3c(F)c(OC)cc(OC)c3F)sc2cn1` [Example 24, N-(2-((2-(2,6-difluoro-3,5-dimethoxybenzoyl)thieno[2,3-c]pyridin-5-yl)amino)-3-methylphenyl)acrylamide], for which the IC50 in test [1] was less than 100 nM; in test [2] (numeric bounds) it was greater than 6650 nM.

For the origin of these results see US20200253978A1, “HETEROCYCLICS AS INHIBITORS OF FIBROBLAST GROWTH FACTOR RECEPTOR” (ADVENT PHARMA CO. LTD., priority 2017, published 2020).
